From patent publication US5350681A, “Enzymatic membrane method for the synthesis and separation of peptides” (The Coca-Cola Company, priority 1992, dated 1994)

Conditions: pH 5

For `CC(C)OC(=O)[C@@H](N)Cc1ccccc1` [L-phe-O-<, L-phenylalanine isopropyl ester], the “chemical stability of L-phe-O-< over L-phe-OMe” value was “seven times higher” and the “stability of the ester (hydrolysis to L-phenylalanine)” value was “stable”.
